# Assay results: patent US6806257B1, “Flavones as inducible nitric oxide synthase inhibitors, cyclooxygenase-2 inhibitors and potassium channel activators” (priority 1999, dated 2004)
# “Also recorded” adds a separate entry of the source. Where two headings read alike, the source gives them in different places. Marks after values point to notes of the source that are not given here.
# How the values were obtained:
# [1] = tested on: porcine cerebral arteries; assay: L-arginine-induced relaxation in LPS-incubated cerebral arteries without endothelial cells; conditions: LPS 10 μg/ml 20 hours, concomitant 60 μM, U-46619 tone
# Experimental: In vitro tissue bath studies. The arterial segment (4 mm long) of the circle of Willis was dissected and cannulated with a stainless-steel rod (30-28 gauge) of hemispherical section, and a short piece of platinum wire, and mounted horizontally in a plastic tissue bath containing 6 ml of Krebs' bicarbonate solution. The platinum wire was bent into a U shape and anchored to a gate. The stainless-steel rod was connected to a stain gauge transducer (UC3, available from Gould) for isometric recording of changes in force. The temperature of Krebs' solution in the tissue baths, equilibrated with 95% O2 and 5% CO2, was maintained at 37° C. Tissues were equilibrated in the Krebs' solution for an initial 30 minutes and were mechanically stretched to a resting tension of 0.75 g for another 30 minutes. The segments of the circle of Willis were precontracted with 9,11-dideoxy-9α,11α-epoxymethanoprostagladin F2α(U-46619, 1 μM) to induce an active muscle tone of 0.5-0.75 g. Experimental drugs such as L-arginine and Oroxylin A of various concentrations, and TNS at 2,4,8 Hz were applied to induce relaxation. The arteries were then washed with pre-warmed Krebs' solution. […] Stimulation parameters were continuously monitored on a Tektronix oscilloscope. […] The magnitude of a vasodilator response induced by experimental drugs and TNS was expressed as a percentage of the maximum response induced by PPV. […]
# iNOS = assay: LPS-induced iNOS expression in RAW264.7 macrophages (western/northern blot); assay type: cell-based, mouse
# Experimental: Cells. RAW264.7, a mouse macrophage cell line, was obtained from American Type Culture Collection. Cells were cultured in RPMI-1640 medium (available from Gibco Life Technology, in Gaithersburg, Md.) supplemented with 2 mM L-glutamine, antibiotics (100 units/ml penicillin-A and 100 units/ml streptomycin) and 10% heat-inactivated fetal bovine serum (Gibco/BRL) and maintained at 37° C in a humidified incubator containing 5% CO2.
# Western blots. Total cellular extract, cytosolic fractions (for IkB) and nuclear fraction (for p65 antibody) were prepared according to Muller et al., Immunobiology, 187, 233-256, 1993 and separated on sodium dodecyl sulfatepolyacrylamide minigels (8% for iNOS or COX-2, and 10% for IkB or p65) and transferred to immobilon polyvinylidene difluoride membranes (Millipore, Bedford, Mass.). The membrane was incubated overnight at 4° C. with 1% bovine serum albumin and then incubated with anti-iNos, COX-2, α-Tubulin monoclonal antibodies (Transduction Laboratories, Lexington, Ky.), anti-IkB or anti-p65 polyclonal antibodies (Santa Cruz Biochemicals, Santa Cruz, Calif.). iNOS, IkB, p65, Cox-2, α-Tubulin were detected by NBT and BCIP staining (Sigma Chemical Co., St. Louis, Mo.).
# Northern blot analysis. Total RNA (20 μg/lane) were separated by electrophoresis on 1.2% agarose gel containing 6.7% formaldehyde and transformed to a Hybond-N nylon membrane (American Life Science) in 20×standard saline citrate (3 M sodium chloride and 0.3 M sodium citrate, pH 7.0). After heating at 80° C. for 2 hours and prehybridization for 4 hours, the filters were hybridized with ^32P-labeled murine iNOS cDNA probes at a concentration of 3×10^6 cpm/ml for 16-18 hours at 42° C. The probe was labeled with [α-32P] dCTP by using Random Primer labeling kit (Stratagene, La Jolla, Calif.). Then, the filters were washed, dried and autoradiographed with Kodak-X-Omat XAR-film using intensifying screens at −80° C.
# [2] = tested on: porcine cerebral arteries; assay: In vitro tissue bath vasorelaxation of precontracted porcine cerebral arteries; conditions: for EC50: Sus scrofa; for U-46619-induced active muscle tone: 0.1-30 μM
# COX-2 = assay: LPS-induced COX-2 mRNA in Bcl-2-overexpressed RAW264.7 cells; assay type: cell-based, mouse; conditions: 20 μg/ml, LPS 100 ng/ml
# [3] = conclusion from blocker experiments
smiles,measurement,setting,value
"COc1c(O)cc2oc(-c3ccccc3)cc(=O)c2c1O [oroxylin A, 5,7-dihydroxy-6-methoxy flavone]",LPS-rendered L-Arginine-induced relaxation,[1],significantly decreased
same,"blocking LPS-induced iNOS gene expression, comparison among compounds tested",iNOS,most potent among the compounds tested
same,LPS-induced iNOS protein,"iNOS; 100 ng/ml LPS, western blot",inhibited LPS-induced iNOS protein in a concentration-dependent manner
same,transient relaxation,"[2]; 60 μM, KCl (80 mM)-pre-contracted arterial rings, n=5",20.2±1.63 % of PPV-induced maximum relaxation
same,relaxation,"[2]; 60 μM, same arteries contracted with U-46619, n=5",95.1±4.31 % of PPV-induced maximum relaxation
same,sustained relaxation in KCl-precontracted arteries,"[2]; 80 mM KCl, 1-60 μM, with or without endothelial cells",did not induce sustained relaxation; also recorded: failed to induce sustained relaxation
same,Percent of Maximum Control Relaxation,"[2]; Oroxylin A 3 μM, after 4-AP (10 mM)",1.8 ± 1.6%
same,Percent of Maximum Control Relaxation,"[2]; Oroxylin A 3 μM, after ETI (10 μM)",21.4 ± 2.1%
same,Percent of Maximum Control Relaxation,"[2]; Oroxylin A 3 μM, after GLP (30 μM)",24.6 ± 3.4%
same,Percent of Maximum Control Relaxation,"[2]; Oroxylin A 3 μM, after IBT (100 nM)",16.8 ± 3.1%
same,Percent of Maximum Control Relaxation,"[2]; Oroxylin A 3 μM, after INDO (30 μM)",23.0 ± 1.8%
same,Percent of Maximum Control Relaxation,"[2]; Oroxylin A 3 μM, after L-NNA (60 μM)",26.9 ± 3.4%
same,Percent of Maximum Control Relaxation,"[2]; Oroxylin A 3 μM, after MCN (5 μM)",21.2 ± 3.4%
same,Percent of Maximum Control Relaxation,"[2]; Oroxylin A 3 μM, after TEA (1 mM)",7.1 ± 3.0%
same,Percent of Maximum Control Relaxation,"[2]; Oroxylin A 3 μM, after TEA (10 mM)",0** Percent
same,Percent of Maximum Control Relaxation,"[2]; Oroxylin A 3 μM, control (no inhibitor), n=12",24.6 ± 1.9%
same,Percent of Maximum Control Relaxation,"[2]; Oroxylin A 10 μM, after 4-AP (10 mM)",9.7 ± 2.0%
same,Percent of Maximum Control Relaxation,"[2]; Oroxylin A 10 μM, after ETI (10 μM)",41.3 ± 4.4%
same,Percent of Maximum Control Relaxation,"[2]; Oroxylin A 10 μM, after GLP (30 μM)",46.5 ± 7.1%
same,Percent of Maximum Control Relaxation,"[2]; Oroxylin A 10 μM, after IBT (100 nM)",30.8 ± 5.2%
same,Percent of Maximum Control Relaxation,"[2]; Oroxylin A 10 μM, after INDO (30 μM)",41.8 ± 5.6%
same,Percent of Maximum Control Relaxation,"[2]; Oroxylin A 10 μM, after L-NNA (60 μM)",45.3 ± 6.0%
same,Percent of Maximum Control Relaxation,"[2]; Oroxylin A 10 μM, after MCN (5 μM)",37.4 ± 4.5%
same,Percent of Maximum Control Relaxation,"[2]; Oroxylin A 10 μM, after TEA (1 mM)",31.5 ± 6.6%
same,Percent of Maximum Control Relaxation,"[2]; Oroxylin A 10 μM, after TEA (10 mM)",4.87 ± 1.5%
same,Percent of Maximum Control Relaxation,"[2]; Oroxylin A 10 μM, control (no inhibitor), n=12",49.0 ± 3.4%
same,Percent of Maximum Control Relaxation,"[2]; Oroxylin A 30 μM, after 4-AP (10 mM)",28.4 ± 6.7%
same,Percent of Maximum Control Relaxation,"[2]; Oroxylin A 30 μM, after ETI (10 μM)",91.4 ± 1.5%
same,Percent of Maximum Control Relaxation,"[2]; Oroxylin A 30 μM, after GLP (30 μM)",84.2 ± 7.1%
same,Percent of Maximum Control Relaxation,"[2]; Oroxylin A 30 μM, after IBT (100 nM)",68.1 ± 7.2%
same,Percent of Maximum Control Relaxation,"[2]; Oroxylin A 30 μM, after INDO (30 μM)",89.1 ± 3.6%
same,Percent of Maximum Control Relaxation,"[2]; Oroxylin A 30 μM, after L-NNA (60 μM)",91.9 ± 2.8%
same,Percent of Maximum Control Relaxation,"[2]; Oroxylin A 30 μM, after MCN (5 μM)",87.2 ± 2.6%
same,Percent of Maximum Control Relaxation,"[2]; Oroxylin A 30 μM, after TEA (1 mM)",58.6 ± 6.7%
same,Percent of Maximum Control Relaxation,"[2]; Oroxylin A 30 μM, after TEA (10 mM)",16.3 ± 2.0%
same,Percent of Maximum Control Relaxation,"[2]; Oroxylin A 30 μM, control (no inhibitor), n=12",86.0 ± 2.6%
same,EC50,"[2]; after ETI (10 μM), read-out: EC50",8.1 µM
same,EC50,"[2]; after GLP (30 μM), read-out: EC50",11.2 µM
same,EC50,"[2]; after IBT (100 nM), read-out: EC50",15 µM
same,EC50,"[2]; after INDO (30 μM), read-out: EC50",10 µM
same,EC50,"[2]; after L-NNA (60 μM), read-out: EC50",11.4 µM
same,EC50,"[2]; after MCN (5 μM), read-out: EC50",10.5 µM
same,EC50,"[2]; after TEA (1 mM), read-out: EC50",21.5 µM
same,EC50,"[2]; after TEA (10 mM), read-out: EC50",39.3 µM
same,EC50,"[2]; control (no inhibitor), n=12, read-out: EC50",8.4 µM
same,EC50,"[2]; endothelium-denuded arteries, U-46619, n=12, read-out: EC50 of relaxation",8.4 µM
same,EC50,"[2]; intact endothelium, pre-contracted with U-46619 (1 μM), n=4, read-out: EC50 of relaxation",7.9 µM
same,U-46619-induced active muscle tone,[2]; U-46619 (1 μM),concentration-dependant inhibition
same,U-46619-induced active muscle tone,"[2]; U-46619 (1 μM), listed as Oroxylin A",in a concentration-dependent manner decreased
same,Ca2+-activated K+ channel opening,[2]; [3],is a Ca^2+— activated K^+ channel opener
same,KATP channel opening,[2]; [3],is not a KATP channel opener
same,concentration at which maximum relaxation was achieved,"[2]; intact endothelium, U-46619 (1 μM)",30 µM
same,LPS-induced COX-2 mRNA,COX-2,inhibited
